Read-outs that look alike come from different tables or passages of the source.
Test system: patients with locally advanced or metastatic solid tumors
From the text: This was a Phase Ib, multicenter, open-label, dose-finding clinical trial (NCT02610075). […] Three types of treatment schedules were investigated: cohorts bid 1, bid 2, qd 1.1, qd 2.1 and qd 3.1 received bid or qd treatment on a 5/9 schedule (5 days on treatment, followed by 9 days off) on a 14-day cycle. Cohorts qd 1.2, qd 2.2, and qd 3.2 received treatment on a 5/2 schedule (5 days on followed by 2 days off for 2 of 3 weeks) in a 21-day cycle. Cohorts qd 2.3 and qd 3.3 received treatment on a weekly 5/2 schedule in a 21-day cycle (Table 1). The highest dose level(s) at which less than one-third of evaluable patients (none of 3 patients or 1 of 6 patients) experienced a dose-limiting toxicity (DLT) was declared the MTD.
The per protocol analysis set was defined as a subset of the full analysis set, excluding subjects having an important protocol deviation, to be used for analyses of efficacy endpoints if appropriate.

C=CCn1c(=O)c2cnc(Nc3ccc(N4CCN(C)CC4)cc3)nc2n1-c1cccc(C(C)(C)O)n1 [adavosertib, Adavosertib]
Treatment-related SAE: pneumonia (all cohorts (N=62)): 2 [3.2%] n [%] | Treatment-related SAE: thrombocytopenia (all cohorts (N=62)): 1 [1.6%] n [%] | Abdominal pain (treatment-emergent AE) (bid 2: 150 mg bid 5/9 (n=6)): 1 (16.7) n (%) | Abdominal pain (treatment-related AE) (bid 2: 150 mg bid 5/9 (n=6)): 0 n (%) | Alanine aminotransferase increased (treatment-emergent AE) (bid 2: 150 mg bid 5/9 (n=6)): 0 n (%) | Anemia (treatment-emergent AE) (bid 2: 150 mg bid 5/9 (n=6)): 1 (16.7) n (%) | Anemia (treatment-related AE) (bid 2: 150 mg bid 5/9 (n=6)): 1 (16.7) n (%) | Any AE (treatment-emergent) (bid 2: 150 mg bid 5/9 (n=6)): 6 (100) n (%) | Any grade ≥ 3 AE (bid 2: 150 mg bid 5/9 (n=6)): 5 (83.3) n (%) | Any treatment-related AE (bid 2: 150 mg bid 5/9 (n=6)): 6 (100) n (%) | Any treatment-related grade ≥ 3 AE (bid 2: 150 mg bid 5/9 (n=6)): 3 (50.0) n (%) | Asthenia (treatment-emergent AE) (bid 2: 150 mg bid 5/9 (n=6)): 1 (16.7) n (%) | Asthenia (treatment-related AE) (bid 2: 150 mg bid 5/9 (n=6)): 0 n (%) | Back pain (treatment-emergent AE) (bid 2: 150 mg bid 5/9 (n=6)): 2 (33.3) n (%) | Constipation (treatment-emergent AE) (bid 2: 150 mg bid 5/9 (n=6)): 2 (33.3) n (%) | Constipation (treatment-related AE) (bid 2: 150 mg bid 5/9 (n=6)): 1 (16.7) n (%) | Cough (treatment-emergent AE) (bid 2: 150 mg bid 5/9 (n=6)): 1 (16.7) n (%) | Decreased appetite (treatment-emergent AE) (bid 2: 150 mg bid 5/9 (n=6)): 2 (33.3) n (%) | Decreased appetite (treatment-related AE) (bid 2: 150 mg bid 5/9 (n=6)): 2 (33.3) n (%) | Dehydration (treatment-emergent AE) (bid 2: 150 mg bid 5/9 (n=6)): 4 (66.7) n (%) | Dehydration (treatment-related AE) (bid 2: 150 mg bid 5/9 (n=6)): 4 (66.7) n (%) | Diarrhea (treatment-emergent AE) (bid 2: 150 mg bid 5/9 (n=6)): 5 (83.3) n (%) | Diarrhea (treatment-related AE) (bid 2: 150 mg bid 5/9 (n=6)): 5 (83.3) n (%) | Dizziness (treatment-emergent AE) (bid 2: 150 mg bid 5/9 (n=6)): 1 (16.7) n (%) | Dyspepsia (treatment-emergent AE) (bid 2: 150 mg bid 5/9 (n=6)): 1 (16.7) n (%) | Dyspepsia (treatment-related AE) (bid 2: 150 mg bid 5/9 (n=6)): 1 (16.7) n (%) | Dyspnea (treatment-emergent AE) (bid 2: 150 mg bid 5/9 (n=6)): 2 (33.3) n (%) | Edema peripheral (treatment-emergent AE) (bid 2: 150 mg bid 5/9 (n=6)): 1 (16.7) n (%) | Fall (treatment-emergent AE) (bid 2: 150 mg bid 5/9 (n=6)): 1 (16.7) n (%) | Fatigue (treatment-emergent AE) (bid 2: 150 mg bid 5/9 (n=6)): 5 (83.3) n (%) | Fatigue (treatment-related AE) (bid 2: 150 mg bid 5/9 (n=6)): 4 (66.7) n (%) | Headache (treatment-emergent AE) (bid 2: 150 mg bid 5/9 (n=6)): 1 (16.7) n (%) | Hypokalemia (treatment-emergent AE) (bid 2: 150 mg bid 5/9 (n=6)): 1 (16.7) n (%) | Insomnia (treatment-emergent AE) (bid 2: 150 mg bid 5/9 (n=6)): 1 (16.7) n (%) | Muscle spasms (treatment-emergent AE) (bid 2: 150 mg bid 5/9 (n=6)): 0 n (%) | Myalgia (treatment-emergent AE) (bid 2: 150 mg bid 5/9 (n=6)): 0 n (%) | Myalgia (treatment-related AE) (bid 2: 150 mg bid 5/9 (n=6)): 0 n (%) | Nausea (treatment-emergent AE) (bid 2: 150 mg bid 5/9 (n=6)): 3 (50.0) n (%) | Nausea (treatment-related AE) (bid 2: 150 mg bid 5/9 (n=6)): 3 (50.0) n (%) | Neutropenia (treatment-emergent AE) (bid 2: 150 mg bid 5/9 (n=6)): 2 (33.3) n (%) | Neutropenia (treatment-related AE) (bid 2: 150 mg bid 5/9 (n=6)): 2 (33.3) n (%) | Pneumonia (treatment-emergent AE) (bid 2: 150 mg bid 5/9 (n=6)): 0 n (%) | Pyrexia (treatment-emergent AE) (bid 2: 150 mg bid 5/9 (n=6)): 2 (33.3) n (%) | Rash (treatment-emergent AE) (bid 2: 150 mg bid 5/9 (n=6)): 0 n (%) | Thrombocytopenia (treatment-emergent AE) (bid 2: 150 mg bid 5/9 (n=6)): 0 n (%) | Thrombocytopenia (treatment-related AE) (bid 2: 150 mg bid 5/9 (n=6)): 0 n (%) | Urinary tract infection (treatment-emergent AE) (bid 2: 150 mg bid 5/9 (n=6)): 1 (16.7) n (%) | Vomiting (treatment-emergent AE) (bid 2: 150 mg bid 5/9 (n=6)): 2 (33.3) n (%) | Vomiting (treatment-related AE) (bid 2: 150 mg bid 5/9 (n=6)): 2 (33.3) n (%) | Deaths attributed to disease progression and an SAE of treatment-unrelated grade 5 sepsis, patients (cohort qd 3.3): one | AEs leading to dose interruptions, patients (human, in vivo): 25 (40.3%) n (%) | AEs leading to dose reductions, patients (human, in vivo): 17 (27.4%) n (%) | AEs leading to treatment discontinuation, patients (human, in vivo): 4 (6.5%) n (%) | Abdominal pain (treatment-emergent AE) (human, in vivo): 15 (24.2) n (%) | Alanine aminotransferase increased (treatment-emergent AE) (human, in vivo): 8 (12.9) n (%) | Anemia (treatment-emergent AE) (human, in vivo): 16 (25.8) n (%) | Anemia (treatment-related AE) (human, in vivo): 11 (17.7) n (%) | Asthenia (treatment-emergent AE) (human, in vivo): 10 (16.1) n (%) | Back pain (treatment-emergent AE) (human, in vivo): 13 (21.0) n (%) | Constipation (treatment-emergent AE) (human, in vivo): 15 (24.2) n (%) | Cough (treatment-emergent AE) (human, in vivo): 9 (14.5) n (%) | Decreased appetite (treatment-emergent AE) (human, in vivo): 14 (22.6) n (%) | Decreased appetite (treatment-related AE) (human, in vivo): 11 (17.7) n (%) | Dehydration (treatment-related AE) (human, in vivo): 11 (17.7) n (%) | Dehydration leading to dose interruption, patients (human, in vivo): 4 (6.5%) n (%) | Diarrhea leading to dose interruption, patients (human, in vivo): 4 (6.5%) n (%) | Dizziness (treatment-emergent AE) (human, in vivo): 14 (22.6) n (%) | Dyspepsia (treatment-emergent AE) (human, in vivo): 8 (12.9) n (%) | Dyspnea (treatment-emergent AE) (human, in vivo): 9 (14.5) n (%) | Edema peripheral (treatment-emergent AE) (human, in vivo): 16 (25.8) n (%) | Fall (treatment-emergent AE) (human, in vivo): 9 (14.5) n (%) | Fatigue leading to dose interruption, patients (human, in vivo): 4 (6.5%) n (%) | Headache (treatment-emergent AE) (human, in vivo): 8 (12.9) n (%) | Hypokalemia (treatment-emergent AE) (human, in vivo): 11 (17.7) n (%) | Muscle spasms (treatment-emergent AE) (human, in vivo): 8 (12.9) n (%) | Myalgia (treatment-emergent AE) (human, in vivo): 12 (19.4) n (%) | Myalgia (treatment-related AE) (human, in vivo): 9 (14.5) n (%) | Neutropenia (treatment-emergent AE) (human, in vivo): 10 (16.1) n (%) | Neutropenia (treatment-related AE) (human, in vivo): 9 (14.5) n (%) | Neutropenia leading to dose reduction, patients (human, in vivo): 4 (6.5%) n (%) | Number of treatment-related serious AEs (human, in vivo): 10 | Patients with serious AEs (human, in vivo): 25 (40.3%) n (%) | Pyrexia (treatment-emergent AE) (human, in vivo): 10 (16.1) n (%) | Thrombocytopenia (treatment-emergent AE) (human, in vivo): 10 (16.1) n (%) | Thrombocytopenia (treatment-related AE) (human, in vivo): 10 (16.1) n (%) | Thrombocytopenia leading to dose interruption, patients (human, in vivo): 4 (6.5%) n (%) | Thrombocytopenia leading to dose reduction, patients (human, in vivo): 5 (8.1%) n (%) | Treatment-related SAE: anemia (human, in vivo): 1 [1.6%] n [%] | Treatment-related SAE: dehydration (human, in vivo): 2 [3.2%] n [%] | Treatment-related SAE: febrile neutropenia (human, in vivo): 1 [1.6%] n [%] | Urinary tract infection (treatment-emergent AE) (human, in vivo): 9 (14.5) n (%) | Vomiting (treatment-emergent AE) (human, in vivo): 16 (25.8) n (%) | Vomiting (treatment-related AE) (human, in vivo): 14 (22.6) n (%) | Number of serious AEs (SAEs) reported (in vivo): Fifty | Abdominal pain (treatment-emergent AE) (qd 1.1: 200 mg qd 5/9 (n=5)): 1 (20.0) n (%) | Abdominal pain (treatment-related AE) (qd 1.1: 200 mg qd 5/9 (n=5)): 0 n (%) | Alanine aminotransferase increased (treatment-emergent AE) (qd 1.1: 200 mg qd 5/9 (n=5)): 2 (40.0) n (%) | Anemia (treatment-emergent AE) (qd 1.1: 200 mg qd 5/9 (n=5)): 0 n (%) | Anemia (treatment-related AE) (qd 1.1: 200 mg qd 5/9 (n=5)): 0 n (%) | Any AE (treatment-emergent) (qd 1.1: 200 mg qd 5/9 (n=5)): 5 (100) n (%) | Any grade ≥ 3 AE (qd 1.1: 200 mg qd 5/9 (n=5)): 1 (20.0) n (%) | Any treatment-related AE (qd 1.1: 200 mg qd 5/9 (n=5)): 5 (100) n (%) | Any treatment-related grade ≥ 3 AE (qd 1.1: 200 mg qd 5/9 (n=5)): 1 (20.0) n (%) | Asthenia (treatment-emergent AE) (qd 1.1: 200 mg qd 5/9 (n=5)): 2 (40.0) n (%) | Asthenia (treatment-related AE) (qd 1.1: 200 mg qd 5/9 (n=5)): 2 (40.0) n (%) | Back pain (treatment-emergent AE) (qd 1.1: 200 mg qd 5/9 (n=5)): 0 n (%) | Constipation (treatment-emergent AE) (qd 1.1: 200 mg qd 5/9 (n=5)): 1 (20.0) n (%) | Constipation (treatment-related AE) (qd 1.1: 200 mg qd 5/9 (n=5)): 1 (20.0) n (%) | Cough (treatment-emergent AE) (qd 1.1: 200 mg qd 5/9 (n=5)): 0 n (%) | Decreased appetite (treatment-emergent AE) (qd 1.1: 200 mg qd 5/9 (n=5)): 0 n (%) | Decreased appetite (treatment-related AE) (qd 1.1: 200 mg qd 5/9 (n=5)): 0 n (%) | Dehydration (treatment-emergent AE) (qd 1.1: 200 mg qd 5/9 (n=5)): 0 n (%) | Dehydration (treatment-related AE) (qd 1.1: 200 mg qd 5/9 (n=5)): 0 n (%) | Diarrhea (treatment-emergent AE) (qd 1.1: 200 mg qd 5/9 (n=5)): 1 (20.0) n (%) | Diarrhea (treatment-related AE) (qd 1.1: 200 mg qd 5/9 (n=5)): 1 (20.0) n (%)
